Data reported in PubChem BioAssay AID624344 (Sanford-Burnham Center for Chemical Genomics, 2012).
Calls of active or inactive are those of the source. No rule for the calls is given here. Square brackets hold non-standard residues; d marks the D form. Peptide text beside a SMILES is read from it. NMeY = CN[C@@H](Cc1ccc(O)cc1)C(=O)O; NMeF = CN[C@@H](Cc1ccccc1)C(=O)O; 2Abz = Nc1ccccc1C(=O)O

What was measured:
[1] = inhibitors of PAF-induced NFkB signaling in CF airway cells, dose response, cell-based, uHTS hits, panel, cytotoxicity readout (AID 624344); conditions: CF bronchial epithelial cells, PAF-induced NFkB reporter inhibition; with PAF, mean of runs
Cytotoxicity = assay: as above; conditions: CF bronchial epithelial cells, mean of runs

| SMILES | IC50 [1] | IC50 (Cytotoxicity) |
| --- | --- | --- |
| O=C(c1ccccc1)C1OC1C(=O)c1ccccc1 (stereo unspecified) | 6.25 µM | 54.5 µM (inactive) |
| COc1ccc(CN(CCC(c2ccc(F)cc2)C2CCOC(C)(C)C2)C(=O)c2ccco2)cc1 (stereo unspecified) | 6.57 µM | 8.96 µM |
| O=C(CSc1nc(C2CC2)nc2ccccc12)Nc1cccc(O)c1 | 2.58 µM | 42.8 µM |
| COC(=O)N1C(=O)[C@@](c2ccc(OC)cc2)(C(C)C)N1C(=O)OC | 4.72 µM | 49.1 µM |
| Oc1ccc(CCNc2ncnc3ccc(Cl)cc23)cc1 | 0.831 µM | 40.6 µM |
| COc1ccc(S(=O)(=O)N(C(C)=O)c2ccc(OC(C)=O)c3ccccc23)cc1[N+](=O)[O-] | 3.38 µM | 6.46 µM |
| COc1cccc(-c2ccc3ncnc(NCc4cccs4)c3c2)c1 | 2.91 µM | 13.6 µM |
| COc1ccc(-n2nnnc2C(CCc2ccccc2)N2CCC(n3c(=O)[nH]c4ccccc43)CC2)cc1 (stereo unspecified) | 6.25 µM | 11.1 µM |
| Cc1[nH]nc2nc(SCC(=O)NCCC3=CCCCC3)n(-c3ccc(Br)cc3)c(=N)c12 | 8.27 µM | 6.73 µM |
| COc1ccc(Oc2cc(NC(=O)c3nn(C)cc3[N+](=O)[O-])cc([N+](=O)[O-])c2)cc1 | 3.27 µM | 1.69 µM |
| COc1ccc(OC)c(-c2nnc3n2N=C(c2ccc(OC)c(OC4CCOC4)c2)CS3)c1 (stereo unspecified) | 1.71 µM | > 79 µM (inactive) |
| CN(C)c1ccc(C(C(=O)NC2CCCCC2)N(Cc2ccco2)C(=O)c2snc(C(N)=O)c2N)cc1 (stereo unspecified) | 4.04 µM | 9.1 µM |
| CC1Sc2ccc(Cl)cc2-c2nc(N)ncc21 (stereo unspecified) | 6.98 µM | 75 µM (inactive) |
| Cc1cccc2sc(N(CCCN(C)C)C(=O)CCS(=O)(=O)c3ccccc3)nc12 | 3.22 µM | 7.52 µM |
| CC1(C)CC(=O)C=C(NC2=CC3OC(c4ccccc4)OCC3OC2=O)C1 (stereo unspecified) | 3.35 µM | 16.9 µM |
| NC(c1csc(NC(=O)Nc2cccc(Cl)c2)n1)c1ccccc1Cl (stereo unspecified) | 7.54 µM | 21.7 µM |
| CCCN(CC)c1ncnc2[nH]ncc12 | 1.55 µM | 36.3 µM |
| CCCCCCc1cc2cc(C(=O)OCC)c(=O)oc2cc1O | 7.22 µM | 20.2 µM |
| COc1cccc(CN(C)C(=O)C(CCSC)NS(=O)(=O)c2ccc3c(c2)OCCO3)c1OC (stereo unspecified) | 3.4 µM | 13.3 µM |
| O=C(Nc1ccccc1N1CCOCC1)c1cc(-c2ccco2)nc2ccccc12 | 3.88 µM | 9.59 µM |
| Cc1cc(C)nc(Sc2ncnc(N)c2[N+](=O)[O-])n1 | 5.09 µM | 13.5 µM |

| SMILES | IC50 [1] | IC50 (Cytotoxicity) |
| --- | --- | --- |
| COc1ccc(C(=O)N[C@H](C(=O)Nc2nc3ccccc3[nH]2)C(C)C)cc1 | 14.6 µM | > 79 µM (inactive) |
| Cc1ccc(S(=O)(=O)Nc2cccc3cccnc23)c([N+](=O)[O-])c1 | 2.84 µM | > 79 µM (inactive) |
| COc1ccccc1[C@]1(C)ON(c2ccccc2C(F)(F)F)C1=O | 4.14 µM | 66.9 µM (inactive) |
| Clc1ccc(-c2csc3ncnc(N4CCc5ccccc5C4)c23)cc1 | 3.99 µM | 19.2 µM |
| Cc1ccc(-c2cc(C(=O)N(C)Cc3cnn(C)c3C)c3cc(Br)ccc3n2)cc1 | 5.57 µM | 14.4 µM |
| COc1ccc(CN(C)C(=O)c2cc(-c3ccc(C)cc3C)nc3ccccc23)c(OC)c1OC | 6.52 µM | 7.07 µM |
| CC(=O)Nc1ccc(Nc2nc(-c3sc(NC(C)=O)nc3C)cs2)cc1 | 1.69 µM | 28.4 µM |
| NC1(C(=O)O)CSSC1 | 7.73 µM | 35.6 µM |
| Cc1ccc(Cl)cc1-c1cc(C(=O)NCc2cc(C(F)(F)F)cc(C(F)(F)F)c2)[nH]n1 | 8.92 µM | 16.6 µM |
| CCOc1ccc(C(C(=O)NCC2CCCO2)N(Cc2cccs2)C(=O)c2snc(C(N)=O)c2N)cc1 (stereo unspecified) | 3.47 µM | > 79 µM (inactive) |
| NC(=O)c1cc2ccc(O)cc2oc1=Nc1ccccc1 | 1.41 µM | 44.8 µM |
| COc1cc(OC)cc(C(=O)N[C@H](C(=O)Nc2nc3ccccc3[nH]2)C(C)C)c1 | inactive | 41.1 µM |
| CS(=O)(=O)c1ncc(Cl)c(C(=O)Nc2ccc(OC(F)F)cc2)n1 | 1.78 µM | 3.58 µM |
| O=C(Nc1cccc2[nH]ncc12)c1ccc(F)cc1 | 1.06 µM | > 79 µM (inactive) |
| Cc1cccc(N=c2oc3cc(O)ccc3cc2C(N)=O)c1 | 2.77 µM | 45.3 µM |
| O=S(=O)(c1cccc2cnccc12)N1CCCNCC1 | 4.07 µM | 8.16 µM |
| Cc1ccnc(NC(=O)CCCOc2cc(=O)n(C)c3ccccc23)c1 | 11.2 µM | 62.3 µM (inactive) |
| COc1ccc(S(=O)(=O)N2c3ccc(F)cc3CCC2C)cc1 (stereo unspecified) | inactive | > 79 µM (inactive) |
| C[C@H](O)[C@@H]1CN2CCc3c([nH]c4ccc(-c5ccc6c(c5)OCO6)cc34)[C@@H]2C[C@@H]1N(C)C(=O)Nc1ccc(F)cc1 | 9.85 µM | 29 µM |
| c1cc2[nH]snc2c2nc(C3CC3)nc12 | 3.06 µM | 13.3 µM |
| CC1CCc2c(sc3ncnc(N4CCOCC4)c23)C1 (stereo unspecified) | 4.1 µM | 20.4 µM |

| SMILES | IC50 [1] | IC50 (Cytotoxicity) |
| --- | --- | --- |
| Cc1c([N+](=O)[O-])c2ccc(O)cc2n1-c1ccccc1 | 0.851 µM | 26.2 µM |
| CCc1ccc(N(CC)c2ncnc3nc[nH]c23)cc1 | 1.82 µM | > 79 µM (inactive) |
| CC(C)c1ccccc1NC(=O)COC(=O)c1c2c(nc3ccccc13)CCN(Cc1ccccc1)C2 | 6.98 µM | 21.2 µM |
| Brc1ccc2ncnc(NCc3ccccc3)c2c1 | 0.506 µM | 6.15 µM |
| COc1cc2cncc(Cc3ccc(Cl)cc3)c2cc1OC | 2.87 µM | 20.9 µM |
| Cc1ccnc(Nc2nc(-c3sc(C)nc3C)cs2)c1 | 5.11 µM | 16.6 µM |
| Cc1ccc(S(=O)(=O)Nc2ccc3cc([N+](=O)[O-])ccc3c2[N+](=O)[O-])cc1 | 3.17 µM | 4.15 µM |
| COc1cc(NC(=O)c2cc3ccccc3cc2OC)ccc1NC(=O)c1cccs1 | 5.79 µM | 11 µM |
| CN(C)CCCN(C(=O)CCOc1ccccc1)c1nc2ccc(F)cc2s1 | 2.53 µM | 12.7 µM |
| Cc1cccc(C)c1NS(=O)(=O)c1ccc(-c2cnc(C3CC3)o2)cc1 | 11.8 µM | 35 µM |
| COC(=O)c1ccc(NC(=O)c2ccccc2NS(=O)(=O)c2ccccc2)cc1 | 4.53 µM | 39 µM |
| CCOC(=O)C1(C(=O)OCC)COC(=O)C1CN1Cc2cc3ccccc3nc2C1 (stereo unspecified) | 7.48 µM | 11.1 µM |
| O=S(=O)(CC(CN1CCCC1)N1CCCC1)c1ccc2ccccc2c1 (stereo unspecified) | 1.46 µM | 2.35 µM |
| CCc1nccn1C(=O)c1cnn2c(C(F)F)cc(-c3ccc(C)cc3)nc12 | 3.86 µM | 6.64 µM |
| COc1ccc(Nc2nc(-c3cccs3)nc3ccccc23)cc1S(=O)(=O)N1CCOCC1 | 3.78 µM | 8.98 µM |
| COc1ccc(-c2cn[nH]c2-c2ccc(OC)cc2O)cc1 | 2.92 µM | 46.4 µM |
| CC1C(c2ccccc2)OCCN1C(=S)Nc1ccc(S(=O)(=O)N2CCCCC2)cc1 (stereo unspecified) | 9.52 µM | 56.5 µM (inactive) |
| COc1ccc(COC(=O)C2=C(C)NC(=O)NC2c2ccc(OC)cc2)cc1 (stereo unspecified) | 6.54 µM | 44.5 µM |
| CC(C)C[C@@H]1NC(=O)[C@H](Cc2ccccc2)N(C)C(=O)[C@H](C)NC(=O)c2ccccc2NC(=O)[C@H](Cc2ccc(O)cc2)N(C)C1=O (cyclo([2Abz]A[NMeF]L[NMeY])) | 3.42 µM | 6.59 µM |
| O=C(NNc1ccccc1Br)C(O)(c1cccc(C(F)(F)F)c1)c1cccc(C(F)(F)F)c1 | 5.72 µM | 7.73 µM |
| C=C1C(=O)O[C@H]2C[C@H]1[C@@H](OC(C)=O)C/C(C)=C/CC/C(C)=C\CC[C@]2(C)O | 2 µM | 2.39 µM |

| SMILES | IC50 [1] | IC50 (Cytotoxicity) |
| --- | --- | --- |
| Cc1nc2c(O)c3c(c(O)c2nc1C)C1C=CC3CC1 | 5.67 µM | 7.03 µM |
| C=C1C(=O)[C@]23C[C@H]1CCC2[C@@]1(C)C(C[C@@H]3O)[C@](C)(C(=O)O)CC[C@@H]1O (stereo partly specified) | 1.98 µM | 13.1 µM |
| COc1ccc(/C=C/C(=O)c2cc(F)ccc2OC(=O)c2ccccc2C)cc1OC | inactive | 62.5 µM (inactive) |
| CCN(CC(=O)Nc1ccc(OC)cc1)C(=O)c1cc(-c2cccs2)nn1-c1ccccc1 | 5.29 µM | 7.56 µM |
| O=Nc1c(O)n(Cc2c(Cl)cccc2Cl)c2ccccc12 | 5.45 µM | 49.2 µM |
| CCc1nc(Cl)c(C#N)c2c1CCCC2 | 2.87 µM | 45.4 µM |
| Cn1c(Sc2ccc(Cl)cc2)c(C=O)c2ccccc21 | 2.48 µM | 17.3 µM |
| CCN(c1ccc(OC)cc1)c1ncnc2nc[nH]c12 | 3.62 µM | > 79 µM (inactive) |
| COc1ccc(-n2c(C)c(C(C)=O)c3cc(O)ccc32)cc1 | 0.308 µM | > 79 µM (inactive) |
| COc1ccc2[nH]c3c(c2c1)CCNC3=O | 1.37 µM | > 79 µM (inactive) |
| CC1(C)CC(=O)C(C2C3=C(CC(C)(C)CC3=O)Oc3c(Br)cc(Br)cc32)=C(O)C1 (stereo unspecified) | 6.19 µM | 15.1 µM |
| CN(C)C=Nc1c(C(=O)c2ccccc2)sc2nccc(N(C)C)c12 | 10.9 µM | > 79 µM (inactive) |
| CC1(Cc2ccc(F)cc2)C(=O)Nc2ccc(-c3cccnc3)cc21 (stereo unspecified) | 2.54 µM | 18.8 µM |
| O=C(Nc1cccc(S(=O)(=O)N2CCCCC2)c1)Nc1ccc(Cl)cc1Cl | 8.83 µM | 10.6 µM |
| COc1ccc2[nH]c(=O)c3c(c2c1)OC(C)(C)C=C3 | 1.67 µM | 19.8 µM |
| CN(C)CCCN(C(=O)CCOc1ccccc1)c1nc2c(F)cccc2s1 | 5.63 µM | 24.6 µM |
| O=C(Nc1cccc(-c2cnc3ccccc3n2)c1)c1cccc(NC(=O)c2ccco2)c1 | 3.68 µM | 6.82 µM |
| O=C(/C=C/c1cccc([N+](=O)[O-])c1)n1cnc2ccccc21 | 1.99 µM | 11.2 µM |
| O=C1OC(c2ccccc2)(c2cc(Br)ccc2O)c2ccccc21 (stereo unspecified) | 6.65 µM | 42.4 µM |
| c1csc(CNc2ncnc3ccc(-c4ccoc4)cc23)c1 | 0.194 µM | 7.68 µM |
